The text below walks through data of patent US20220389058A1, “PEPTIDES AND COMPOSITIONS FOR USE IN COSMETICS AND MEDICINE” (LIPOTRUE, S.L., priority 2019, published 2022).

Test [1] relates to recombinant mushroom tyrosinase. In words: Tyrosinase activity, L-DOPA/dopachrome absorbance (Example 11). The format is biochemical. To be noted: 0.05-2.5 mg/mL (Ac-SEQ ID NO: 4-NH2: 0.005-2.5 mg/mL); 30 minutes preincubation, L-DOPA, 2 hours, absorbance 450 nm; vs non-treated control (100%). Here is the method:
Briefly, different concentrations of Ac-SEQ ID NO: 1-NH2 (0.05, 0.25, 0.5 and 2.5 mg/mL), Ac-SEQ ID NO: 2-NH2 (0.05, 0.25, 0.5 and 2.5 mg/mL), Ac-SEQ ID NO: 3-NH2 (0.05, 0.25, 0.5 and 2.5 mg/mL) and Ac-SEQ ID NO: 4-NH2 (0.005, 0.025, 0.05, 0.25, 0.5 and 2.5 mg/mL) and the positive control kojic acid (400 and 800 μM) were incubated with recombinant mushroom tyrosinase for 30 minutes before the addition of L-DOPA (L-3,4 dihidroxiphenilalanine, 2.5 mg/mL in PBS). After 2 hours' reaction at room temperature, the absorbance at 450 nm of each well was determined using the microplate reader Multiskan FC (Thermo Fisher Scientific, Mass., USA), which is directly proportional to the amount of dopachrome in the reaction mixture.

A further test concerns HUVECs. The test can be described thus: Genes related with response to sleep deprivation, RT-qPCR in HUVEC (Example 16). The format is cell-based, Human. The note with it: 0.01 mg/ml, 24 hours. Here is the method: (§1) A stock solution of the peptide was prepared in water at 1 mg/mL. Working solution was freshly prepared at the specified concentration from stock solution in the corresponding supplemented medium.
RNA (ribonucleic acid) extraction and RT-qPCR (reverse transcription quantitative polymerase chain reaction) were performed. […]
Cells were finally lysed, and replicates were pooled together for RNA extraction using Qiagen RNeasy Mini kit following manufacturer's instructions. […] (Annealing and extension) (Arya, M., Shergill, I. S., Williamson, M., Gommersall, L., Arya, N., Patel, H. R. (2005) Basic principles of real-time quantitative PCR. Expert Rev. Mol. Diagn.; 5(2):209-19; and Jozefczuk, J. and Adjaye, J. (2011) Quantitative real-time PCR-based analysis of gene expression. Methods Enzymol. 500; 99-109).
The obtained data was analysed using the ΔΔCt method, which provides the target gene expression values as fold changes in the treated sample compared with an untreated basal sample. […]
(Real-time PCR tracks product formation cycle by cycle.)

Test [2] deals with human skin explants. The test can be described thus: Ex vivo methylglyoxal-induced glycation, CML immunostaining (Example 14). To be noted: cream containing 1% (w/v) Ac-SEQ ID NO: 1-NH2, topical 2 mg/cm^2; methylglyoxal 500 μM; after 9 days of culture. Here is the method:
Briefly, human skin explants from a person were kept in survival in BEM culture medium at 37° C. in a humid, 5% CO2 atmosphere. […] Explants were collected at each timepoint and cut in two parts. Half was fixed in buffered formalin solution and half was frozen at −80° C.
After fixation for 24 hours in buffered formalin, the samples were dehydrated and impregnated in paraffin. 5-μm-thick sections were made using a Leica RM 2125 Minot-type microtome, and the sections were mounted on Superfrost® histological glass slides.

In the next test the test system is HEKa cells. The test can be described thus: Genes related with response to sleep deprivation, RT-qPCR in HEKa (Example 16). The format is cell-based, Human. The note with it: 0.01 mg/ml, 24 hours. As for the experimental part: as §1
RNA (ribonucleic acid) extraction and RT-qPCR (reverse transcription quantitative polymerase chain reaction) were performed. Briefly, HEKa, HDFa or HUVEC cells were seeded in duplicate (n=2) in 6-well plates at a density of 4×10^5 cells/well (2×10^5 cells/well for HUVEC cells) and maintained at standard culture conditions (106 Medium supplemented with 1% (v/v) LSGS for HDFa cells; Medium Epilife supplemented with 1% (v/v) EDGS and 1% (v/v) penicillin/streptomycin for HEKa cells; Endothelial Cell Growth Medium for HUVEC cells; 37° C., 95% room humidity, 5% CO2) for 24 hours.
Then, cells were treated with peptide Ac-SEQ ID NO: 1-NH2 at the concentration of 0.01 mg/mL for 24 hours. Untreated cells were used as basal or negative control.
Cells were finally lysed, and replicates were pooled together for RNA extraction using Qiagen RNeasy Mini kit following manufacturer's instructions. Purified RNAs were used to generate the corresponding cDNAs (complementary deoxyribonucleic acids) by reverse transcription using a commercial kit High capacity cDNA reverse transcription kit (Applied Biosystems) which served as templates for amplification. RT-qPCR was performed with the panel of appropriate TaqMan assay probes for genes shown in table 10 (plus GAPDH—Glyceraldehyde 3-phosphate dehydrogenase—that was used as housekeeping gene) and 2×gene expression Master Mix using StepOne plus Real-Time PCR instrument. Amplification included 40 cycles of: 15 seconds at 95° C. (denaturation) and 1 minute at 60° C. (Annealing and extension) (Arya, M., Shergill, I. S., Williamson, M., Gommersall, L., Arya, N., Patel, H. R. (2005) Basic principles of real-time quantitative PCR. Expert Rev. Mol. Diagn.; 5(2):209-19; and Jozefczuk, J. and Adjaye, J. (2011) Quantitative real-time PCR-based analysis of gene expression. Methods Enzymol. 500; 99-109).
The obtained data was analysed using the ΔΔCt method, which provides the target gene expression values as fold changes in the treated sample compared with an untreated basal sample. Both samples were normalized with the relative expression of a housekeeping gene GAPDH (Glyceraldehyde 3-phosphate dehydrogenase).

Test [3] concerns human skin explants. In words: Ex vivo fibrillin-1 immunostaining after methylglyoxal (Example 15). To be noted: cream containing 1% Ac-SEQ ID NO: 1-NH2, topical 2 mg/cm^2; methylglyoxal 500 μM; day 9. As for the experimental part:
Briefly, human skin explants from a person were kept in survival in BEM culture medium at 37° C. in a humid, 5% CO2 atmosphere. A placebo cream and a cream containing 1% Ac-SEQ ID NO: 1-NH2, prepared according to Example 6, were applied topically on the basis of 2 μL per explant (2mg/cm^2) and spread using a small spatula on day 0 (DO), day 1, day 4, day 6 and day 8. […] To induce glycation, a solution of Methylglyoxal (MG) was incorporated in the BEM culture medium at a final concentration of 500 μM on day 4, day 6 and day 8, on the concerned batches “MG” (all samples except control untreated samples). Explants were collected at each timepoint and cut in two parts. Half was fixed in buffered formalin solution and half was frozen at −80° C.
The nuclei were counterstained with propidium iodide.

As for “Ac-Arg-Arg-Gln-Met-Arg-Glu-NH2 (Ac-RRQMRE-NH2) [Ac-SEQ ID NO: 1-NH2]”, the tyrosinase activity entry in test [1] is “inhibited tyrosinase in all the concentrations tested”. In addition, the “NFKB1 Fold change between treated cells and basal control” value in the test on HUVECs is given as −1.24 Fold change. The “decrease in CML signal when compared with MG-exposed untreated explants” value in the test with human skin explants [2] is on record as −73%. In the test with HEKa cells, the “CXCL8 Fold change between treated cells and basal control” value is −1.33 Fold change; the “MTNR1A Fold change between treated cells and basal control” value is given as 2.11 Fold change; the “SIGIRR Fold change between treated cells and basal control” value stood at 1.27 Fold change; the “SLC2A1 Fold change between treated cells and basal control” value is on record as −1.21 Fold change. For the same substance, the “increase in fibrillin 1 staining when compared with the MG-exposed untreated control” value with human skin explants [3] was 86%.
